Legend:
[1] = test system: hepatocytes; conditions: in vivo, iv; cited from earlier work
[2] = test system: liver; assay: CT studies in rabbit: contrast enhancement in the liver; format: in vivo, rabbits; conditions: dynamic CT, iohexol 350 mg I/ml
Procedure: Contrast enhancement in the liver was investigated in rabbits. Anaesthetized animals were placed in a Siemens CT scanner and injected with particles of Pharmaceutical Formulation 4 in the marginal ear vein. Particle concentration was 28 mg/ml. A particle dose corresponding to 75 mg I/kg gave an increase in liver contrast from a basal level of […] to about 120 HU. Thus, the contrast enhancement on this dose level was about 35-40 HU. […] The average iodine content in these livers was 1.1 mg I/g liver. […] About 8 times more iodine had to be injected in these animals to achieve the same contrast enhancement of the liver. With this vascular contrast medium, the enhancement was transient, lasting for one or two minutes.

[3] = In vitro biodegradation: hydrolysis with release of Isopaque in Seronorm, pH 7.4, 37° C (HPLC); format: in vitro ADME; conditions: seronorm serum, Seronorm (0.5 mg/ml), read-out: substance hydrolysed after 6 hours in Seronorm
Procedure: The following Examples are given by way of illustration only. Seronorm is a test serum available from Nycomed AS, Oslo, Norway.
(§1) The powdered product of Example 1 was suspended in Seronorm (0.5 mgml) at pH 7.4 and agitated at 37° C. As a control the experiment was also performed in phosphate buffered saline (PBS) at pH 7.4. At different time points samples were taken from the supernatant after centrifugation of the vial (4000 rpm, 10 rain). The release of Isopaque (5-(N-acetylamino)-3-(N-acetyl-N-methylamino)-2,4,6-triiodobenzene carboxylic acid) was analysed by HPLC. After 6 hours 100% of the substance was hydrolysed. In PBS only 1.1% was hydrolysed during the same period.

[4] = In vitro biodegradation control: hydrolysis in phosphate buffered saline (PBS), pH 7.4; format: physicochemical; conditions: read-out: substance hydrolysed in PBS
Procedure: as §1

Q: For `CCOC(=O)c1c(I)cc(I)c(NC(=O)CCCCC(=O)Nc2c(I)cc(I)c(C(=O)OCC)c2I)c1I` [ethyl ester of iodipamide, ethyl ester of the water soluble X-ray contrast agent, iodipamide], which “lipid vacuoles in the hepatocytes” value [1] is on record?
A: increase in lipid vacuoles in the hepatocytes

Q: For `CC(=O)N(CC(O)CO)c1c(I)c(C(=O)NCC(O)CO)c(I)c(C(=O)NCC(O)CO)c1I` (stereo not drawn) [iohexol], which duration of enhancement [2] is on record?
A: one or two

Q: And the “iodine to be injected to achieve the same contrast enhancement of the liver, relative to Pharmaceutical Formulation 4” value [2]?
A: About 8 times

Q: And the “nature of enhancement with vascular contrast medium” value [2]?
A: transient

Q: For `CCOC(=O)OC(C)OC(=O)c1c(I)c(NC(C)=O)c(I)c(N(C)C(C)=O)c1I` (stereo not drawn) [Example 1, 1-(Ethyloxycarbonyloxy)ethyl 5-(N-acetylamino)-3-(N-acetyl-N-methylamino)-2,4,6-triiodobenzenecarboxylate], which metabolised at 6 h [3] is on record?
A: 100%

Q: What about the degraded at 6 h [4] of the same compound?
A: 1.1%
